The nature of this data set: GHS categories as the set defines them, by LD50: 1 up to 5, 2 up to 50, 3 up to 300, 4 up to 2000, 5 above 2000 mg/kg. Particulars: rat; in vivo; po.

`O=C(O)c1ccc(/N=N/c2ccc(O)c(C(=O)O)c2)cc1` came in with a GHS category of 5.
The molecule `COCc1ccc(C=O)o1` returned a GHS category of 5.
The value for `CCCCCCCCCC(OC)OC` was 5; that for `O=S(=O)(O)c1ccc2c(c1)-c1nc-2nc2[nH]c(nc3nc(nc4[nH]c(n1)c1ccc(S(=O)(=O)O)cc41)-c1ccc(S(=O)(=O)O)cc1-3)c1ccc(S(=O)(=O)Nc3ccc(S(=O)(=O)CCO)cc3)cc21` was 5.
For the molecule `c1ccc(C2c3ccccc3CCN2c2ccccc2)cc1` (stereo unspecified), the GHS category was determined as 4.
Regarding `COc1cc(C#N)cc(OC)c1O`, the GHS category is 5.
As for `CN1OCC(=Cc2cc(C(C)(C)C)c(O)c(C(C)(C)C)c2)C1=O`, the GHS category is 4.
With `O=C(O)CCCCCCCCCCCC(=O)O` the figure was 5; with `COc1ccc2c(c1)CCN(c1ccccc1)C2c1ccccc1Cl` (stereo unspecified), 4; with `CCOC(=O)C(=O)Nc1cc(OCCOCc2ccccc2)nc(C)n1`, 4.
For the molecule `CCC1(C)Oc2cccc(OC(=O)N(C)C(C)=O)c2O1` (stereo unspecified), the GHS category amounted to 3.
With `CCCCCCCCCCCCCCCNP1(=S)OCc2cc([N+](=O)[O-])ccc2O1` (stereo unspecified) the figure was 3.
`C#CCC(O[Si](CC)(CC)CC)[Si](CC)(CC)CC` (stereo unspecified) showed a GHS category of 5.
As for `O=C1OC(CN2CCCCC2)CC12CC(CN1CCCCC1)OC2=O` (stereo unspecified), the GHS category came out at 5.
With `COc1ccc2c(c1)CCN(c1ccccc1)C2c1ccccc1OC` (stereo unspecified) the figure was 4; with `N[C@@H](C(=O)N[C@@H]1C(=O)N2C(C(=O)O)=C(Cl)CS[C@H]12)c1ccccc1`, 5; with `CN(SN(C)C(=O)Oc1ccc(C(C)(C)c2ccc(OC(=O)N(C)SN(C)C(=O)ON=C3CSCCS3)cc2)cc1)C(=O)ON=C1CSCCS1`, 4.
Molecule `Cn1c(=O)c2c([nH]c(=O)n2C)n(C)c1=O` gave a GHS category of 5.
Molecule `CCCCCCNC(=O)c1cnc2cccc(C)n2c1=O` returned a GHS category of 3.
The value for `C#C[C@]1(O)CC[C@H]2[C@@H]3CCC4=CC(=O)CC[C@]4(C)[C@H]3CC[C@@]21C` was 5; that for `CCN(CCOC(C)OCC(C)C)c1ccc(N=Nc2ccccc2)cc1` (stereo unspecified) was 4; that for `CCC(COC(=O)c1ccccc1C(=O)OCC(CC)CC(C)C)CC(C)C` (stereo unspecified) was 5.
Take `CC(C)OC(=O)CCCCCCCCC(=O)OC(C)C`: the GHS category is recorded as 5.
For `Cc1nc2n(c1/C=N/NC(=O)CN(C)C)CCS2`, the GHS category turned out to be 4.
On to `CCCN(CCC)c1c([N+](=O)[O-])cc(S(N)(=O)=O)cc1[N+](=O)[O-]`, for which the GHS category is 5.
The value for `CCOc1ccc(Nc2ccc(C(=C3C=CC(=[N+](CC)Cc4cccc(S(=O)(=O)[O-])c4)C=C3C)c3ccc(N(CC)Cc4cccc(S(=O)(=O)O)c4)cc3C)cc2)cc1` was 5; that for `CNc1ccc(Cl)cc1C(=O)c1ccccc1Cl` was 5.
For the molecule `CC(CCO)CC(C)(C)C` (stereo unspecified), the GHS category is on record as 5.
As for `CCOC(=O)[C@H](CCc1ccccc1)N[C@@H](C)C(=O)N1CC2(C[C@H]1C(=O)O)SCCS2`, the GHS category came to 5.
`CC(C)(C)C1CCC(CC2=C(O)C(=O)c3ccccc3C2=O)CC1` (stereo unspecified) returned a GHS category of 5.
As for `NC(=O)c1cn(CCO)nc1[N+](=O)[O-]`, the GHS category is recorded as 5.
With `CC(C)CCCC1CCC(C)(C(=O)O)CC1` (stereo unspecified) the figure was 5; with `O=C(c1ccccc1)c1cc([N+](=O)[O-])ccc1S(=O)(=O)NCCCN1CCOCC1`, 4; with `C=CC(=O)NCCO`, 5.
Take `Cc1cc(C(F)(C(F)(F)F)C(F)(F)F)ccc1NC(=O)c1cccc(I)c1C(=O)NC(C)(C)CS(C)(=O)=O`: the GHS category is reported as 5.
`OCC(O)COC1CCCCC1` (stereo unspecified) showed a GHS category of 5.
In the case of `C[C@]12CC[C@H]3[C@@H](CCC4=CC(=O)C=C[C@@]43C)[C@@H]1CC[C@H]2O`, the GHS category is listed as 5.
`COc1ccc(Cl)cc1N/C(=N/C1CCCCC1)c1cccc(C)c1` gave a GHS category of 4.
The molecule `O=[N+]([O-])c1cc2c(Nc3ccc(F)c(Cl)c3)ncnc2cc1O[C@H]1CCOC1` came in with a GHS category of 5.
Regarding `C=CCC(C)C`, the GHS category is reported as 5.
`Brc1ccc(N/C(=N/C2CCCCC2)c2ccccc2)cc1` yielded a GHS category of 5.
As for `C=C(C)C(C)(C)Cc1ccc(Nc2ccc(CC(C)(C)C(=C)C)cc2)cc1`, the GHS category was 5.
As for `COC(=O)Nc1nc2ccc(OCc3ccccc3)cc2[nH]1`, the GHS category stood at 5.
Take `CC1(C)S[C@@H]2[C@H](/N=C/N3CCCCCC3)C(=O)N2[C@H]1C(=O)O`: the GHS category is reported as 5.
The value for `COc1ccc(C2NC(=O)C(C)S2)cc1` (stereo unspecified) was 5; that for `CCCCCCCC1CCCC(=O)O1` (stereo unspecified) was 5.
As for `CCOC(=O)/C(Cl)=C/c1cc(N2C(=O)C3=C(CCCC3)C2=O)ccc1Cl`, the GHS category stood at 5.
In turn, `COC(=O)c1ccc2c(c1)NC(=O)C2` returned a GHS category of 5.
In turn, `CCCCOC(=O)C1C(C(=O)OCCCC)C2(Cl)C(Cl)=C(Cl)C1(Cl)C2(Cl)Cl` (stereo unspecified) gave a GHS category of 5.
With `O=C1c2c(Br)c(Br)c(Br)c(Br)c2C(=O)N1CCN1C(=O)c2c(Br)c(Br)c(Br)c(Br)c2C1=O` the figure was 5.
In turn, `C=COCCOCCOCCOC=C` came in with a GHS category of 5.
For `CC(C)CCCC(C)CCO` (stereo unspecified), the GHS category was 5.
Take `CC(C)=CCC/C(C)=C/COC(=O)C(C)C`: the GHS category is 5.
On to `O=C1CCCCCCCCCOCCCCCO1`, for which the GHS category is listed as 5.
For `Cc1ccc(Cl)cc1NC(=O)c1cc2ccccc2cc1O`, the GHS category was found to be 5.
The molecule `S=C(SSC(=S)N(Cc1ccccc1)Cc1ccccc1)N(Cc1ccccc1)Cc1ccccc1` gave a GHS category of 5.
`CS(=O)(=O)c1ccc(C(=O)C2C(=O)CCCC2=O)c(Cl)c1COCC(F)(F)F` displayed a GHS category of 5.
Consider `CC(C)(c1cc(Br)c(OCC(Br)CBr)c(Br)c1)c1cc(Br)c(OCC(Br)CBr)c(Br)c1` (stereo unspecified), for which the GHS category is on record as 5.
With `O=C1c2ccccc2C(c2ccc(O)cc2)(c2ccc(O)cc2)N1c1ccccc1` the figure was 5; with `CCOC(C)C(C=NNC(N)=S)=NNC(N)=S` (stereo unspecified), 5.
The value for `CCOP(=O)(OCC)c1ccccc1` was 4.
`CC(C)(C)c1cc(S)c(O)c(C(C)(C)C)c1` had a GHS category of 5.
The value for `Cc1ccc(C(=O)NS(=O)(=O)c2ccc(N)cc2)cc1C` was 5.
In turn, `Clc1ccc(C(Cn2ccnc2)OCc2ccc(Sc3ccccc3)cc2)c(Cl)c1` (stereo unspecified) came in with a GHS category of 5.
Molecule `O=S(=O)(NCl)c1ccccc1` displayed a GHS category of 4.
The molecule `O=c1n(CCO)c(=O)n(CCO)c(=O)n1CCO` showed a GHS category of 5.
Molecule `CCCC(=O)Nc1ccc(Cc2ccccn2)c([N+](=O)[O-])c1` registered a GHS category of 4.
In turn, `CC(=O)OCC1=C(C(=O)O)N2C(=O)[C@@H](NC(=O)[C@H](N)c3ccccc3)[C@H]2SC1` had a GHS category of 5.
`COc1ccccc1N1CCN(CC(O)COc2cccc3ccccc23)CC1` (stereo unspecified) gave a GHS category of 5.
As for `CCCOC(=O)C(C(=O)OCCC)=C1SC2C(S1)N(C)CCN2C` (stereo unspecified), the GHS category is 4.
In turn, `CS(C)(=O)=O` came in with a GHS category of 5.

These data come from the CATMoS acute toxicity set (Mansouri et al. 2021).
